Activity calls are given as the source filed them. No cut-off for these calls is given here.
How the values were obtained:
Bipolaris leersiae [1] = assay: Antifungal activity against Bipolaris leersiae assessed as inhibition of conidial germination at 100 ppm after 24 hrs by microscopy; type: functional
Bipolaris leersiae [2] = assay: Antifungal activity against Bipolaris leersiae assessed as inhibition of conidial germination at 50 ppm after 24 hrs by microscopy; type: functional, organism-based
Bipolaris leersiae [3] = assay: Antifungal activity against Bipolaris leersiae assessed as inhibition of conidial germination at 300 ppm after 24 hrs by microscopy; type: functional
Bipolaris leersiae [4] = assay: Antifungal activity against Bipolaris leersiae assessed as inhibition of conidial germination at 500 ppm after 24 hrs by microscopy; type: functional
Bipolaris leersiae [5] = assay: Antifungal activity against Bipolaris leersiae assessed as inhibition of conidial germination at 1000 ppm after 24 hrs by microscopy; type: functional, organism-based
Bipolaris leersiae [6] = assay: Antifungal activity against Bipolaris leersiae assessed as inhibition of conidial germination at 10 ppm after 24 hrs by microscopy; type: functional

| SMILES | Activity (Bipolaris leersiae [1]) | Activity (Bipolaris leersiae [2]) | Activity (Bipolaris leersiae [3]) | Activity (Bipolaris leersiae [4]) | inhibition at 100 ppm (Bipolaris leersiae [1]) [%] | inhibition at 300 ppm (Bipolaris leersiae [3]) [%] | inhibition at 500 ppm (Bipolaris leersiae [4]) [%] | Activity (Bipolaris leersiae [5]) | Activity (Bipolaris leersiae [6]) | inhibition at 10 ppm (Bipolaris leersiae [6]) [%] |
| --- | --- | --- | --- | --- | --- | --- | --- | --- | --- | --- |
| COc1cc(OC)c(Cl)c(C)c1Cl | inactive |  |  |  |  |  |  |  |  |  |
| COc1c(O)c(C)c(Cl)c(OC)c1Cl | Active | Active | Active | Active |  |  |  |  |  |  |
| Cc1cc(O)cc(O)c1 [ORCINOL] |  |  |  |  | 30 | 30 | 80 | Active |  |  |
| COc1c(Cl)c(C)c(Cl)c(O)c1Cl | Active | Active | Active | Active |  |  |  |  | Active |  |
| Cc1cc(O)c(Cl)c(O)c1 |  |  | Active | Active | 80 |  |  |  |  |  |
| COc1c(O)c(C)c(Cl)c(O)c1Cl | Active | Active | Active | Active |  |  |  |  |  | 80 |
| Cc1cc(O)cc(O)c1Cl |  |  | Active | Active | 80 |  |  |  |  |  |
